Laboratory results from US20130224236A1, “HSV-1 EPITOPES AND METHODS FOR USING SAME” (UNIVERSITY OF WASHINGTON, priority 2010, published 2013).

B1: UL39: HSV-1 UL39/ICP6/10, large subunit of ribonucleotide reductase (protein)
chain: MASRPAASSPVEARAPVGGQEAGGPSAATQGEAAGAPLAHGHHVYCQRVNGVMVLSDKTPGSASYRISDNNFVQCGSNCTMIIDGDVVRGRPQDPGAAASPAPFVAVTNIGAGSDGGTAVVAFGGTPRRSAGTSTGTQTADVPTEALGGPPPPPRFTLGGGCCSCRDTRRRSAVFGGEGDPVGPAEFVSDDRSSDSDSDDSEDTDSETLSHASSDVSGGATYDDALDSDSSSDDSLQIDGPVCRPWSNDTAPLDVCPGTPGPGADAGGPSAVDPHAPTPEAGAGLAADPAVARDDAEGLSDPRPRLGTGTAYPVPLELTPENAEAVARFLGDAVNREPALMLEYFCRCAREETKRVPPRTFGSPPRLTEDDFGLLNYALVEMQRLCLDVPPVPPNAYMPYYLREYVTRLVNGFKPLVSRSARLYRILGVLVHLRIRTREASFEEWLRSKEVALDFGLTERLREHEAQLVILAQALDHYDCLIHSTPHTLVERGLQSALKYEEFYLKRFGGHYMESVFQMYTRIAGFLACRATRGMRHIALGREGSWWEMFKFFFHRLYDHQIVPSTPAMLNLGTRNYYTSSCYLVNPQATTNKATLRAITSNVSAILARNGGIGLCVQAFNDSGPGTASVMPALKVLDSLVAAHNKESARPTGACVYLEPWHTDVRAVLRMKGVLAGEEAQRCDNIFSALWMPDLFFKRLIRHLDGEKNVTWTLFDRDTSMSLADFHGEEFEKLYQHLEVMGFGEQIPIQELAYGIVRSAATTGSPFVMFKDAVNRHYIYDTQGAAIAGSNLCTEIVHPASKRSSGVCNLGSVNLARCVSRQTFDFGRLRDAVQACVLMVNIMIDSTLQPTPQCTRGNDNLRSMGIGMQGLHTACLKLGLDLESAEFQDLNKHIAEVMLLSAMKTSNALCVRGARPFNHFKRSMYRAGRFHWERFPDARPRYEGEWEMLRQSMMKHGLRNSQFVALMPTAASAQISDVSEGFAPLFTNLFSKVTRDGETLRPNTLLLKELERTFSGKRLLEVMDSLDAKQWSVAQALPCLEPTHPLRRFKTAFDYDQKLLIDLCADRAPYVDHSQSMTLYVTEKADGTLPASTLVRLLVHAYKRGLKTGMYYCKVRKATNSGVFGGDDNIVCMSCAL
modifications: human herpesvirus 1
notes: HSV-1 UL39/ICP6/10, large subunit of ribonucleotide reductase
B2: UL21: HSV-1 protein UL21 (protein)
chain: MELSYATTMHYRDVVFYVTTDRNRAYFVCGGCVYSVGRPCASQPGEIAKFGLVVRGTGPDDRVVANYVRSELRQRGLQDVRPIGEDEVFLDSVCLLNPNVSSELDVINTNDVEVLDECLAEYCTSLRTSPGVLISGLRVRAQDRIIELFEHPTIVNVSSHFVYTPSPYVFALAQAHLPRLPSSLEALVSGLFDGIPAPRQPLDAHNPRTDVVITGRRAPRPIAGSGAGSGGAGAKRATVSEFVQVKHIDRVGPAGVSPAPPPNNTDSSSLVPGAQDSAPPGPTLRELWWVFYAADRALEEPRADSGLTREEVRAVRGFREQAWKLFGSAGAPRAFIGAALGLSPLQKLAVYYYIIHRERRLSPFPALVRLVGRYTQRHGLYVPRPDDPVLADAINGLFRDALAAGTTAEQLLMFDLLPPKDVPVGSDVQADSTALLRFIESQRLAVPGGVISPEHVAYLGAFLSVLYAGRGRMSAATHTARLTGVTSLVLAVGDVDRLSAFDRGAAGAASRTRAAGYLDVLLTVRLARSQHGQSV
modifications: human herpesvirus 1
notes: HSV-1 protein UL21
B3: UL40: HSV-1 protein UL40 (protein)
chain: MDSAAPALSPALTALTDQSATADLAIQIPKCPDPERYFYTSQCPDINHLRSLSILNRWLETELVFVGDEEDVSKLSEGELSFYRFLFAFLSAADDLVTENLGGLSGLFEQKDILHYYVEQECIEVVHSRVYNIIQLVLFHNNDQARREYVAGTINHPAIRAKVDWLEARVRECASVPEKFILMILIEGIFFAASFAAIAYLRTNNLLRVTCQSNDLISRDEAVHTTASCYIYNNYLGGHAKPPPDRVYGLFRQAVEIEIGFIRSQAPTDSHILSPAALAAIENYVRFSADRLLGLIHMKPLFSAPPPDASFPLSLMSTDKHTNFFECRSTSYAGAVVNDL
modifications: human herpesvirus 1
notes: HSV-1 protein UL40
B4: UL53: HSV-1 protein UL53/Glycoprotein K (protein)
chain: MLAVRSLQHLSTVVLITAYGLVLVWYTVFGASPLHRCIYAVRPTGTNNDTALVWMKMNQTLLFLGAPTHPPNGGWRNHAHICYANLIAGRVVPFQVPPDAMNRRIMNVHEAVNCLETLWYTRVRLVVVGWFLYLAFVALHQRRCMFGVVSPAHKMVAPATYLLNYAGRIVSSVFLQYPYTKITRLLCELSVQRQNLVQLFETDPVTFLYHRPAIGVIVGCELMLRFVAVGLIVGTAFISRGACAITYPLFLTITTWCFVSTIGLTELYCILRRGPAPKNADKAAAPGRSKGLSGVCGRCCSIILSGIAVRLCYIAVVAGVVLVALHYEQEIQRRLFDV
modifications: human herpesvirus 1
notes: HSV-1 protein UL53/Glycoprotein K
B5: US1/1.5: HSV-1 protein US1/ICP22 (protein)
chain: MADISPGAFAPCVKARRPALRSPPLGTRKRKRPSRPLSSESEVESDTALESEVESETASDSTESGDQDEAPRIGGRRAPRRLGGRFFLDMSAESTTGTETDASVSDDPDDTSDWSYDDIPPRPKRARVNLRLTSSPDRRDGVIFPKMGRVRSTRETQPRAPTPSAPSPNAMLRRSVRQAQRRSSARWTPDLGYMRQCINQLFRVLRVARDPHGSANRLRHLIRDCYLMGYCRARLAPRTWCRLLQVSGGTWGMHLRNTIREVEARFDATAEPVCKLPCLETRRYGPECDLSNLEIHLSATSDDEISDATDLEAAGSDHTLASQSDTEDAPSPVTLETPEPRGSLAVRLEDEFGEFDWTPQEGSQPWLSAVVADTSSVERPGPSDSGAGRAAEDRKCLDGCRKMRFSTACPYPCSDTFLRP
modifications: human herpesvirus 1
notes: HSV-1 protein US1/ICP22
B6: UL13: HSV-1 protein UL13 (protein)
chain: MDESRRQRPAGHVAANLSPQGARQRSFKDWLASYVHSNPHGASGRPSGPSLQDAAVSRSSHGSRHRSGLRERLRAGLSRWRMSRSSHRRASPETPGTAAKLNRPPLRRSQAALTAPPSSPSHILTLTRIRKLCSPVFAINPALHYTTLEIPGARSFGGSGGYGDVQLIREHKLAVKTIKEKEWFAVELIATLLVGECVLRAGRTHNIRGFIAPLGFSLQQRQIVFPAYDMDLGKYIGQLASLRTTNPSVSTALHQCFTELARAVVFLNTTCGISHLDIKCANILVMLRSDAVSLRRAVLADFSLVTLNSNSTIARGQFCLQEPDLKSPRMFGMPTALTTANFHTLVGHGYNQPPELLVKYLNNERAEFTNHRLKHDVGLAVDLYALGQTLLELVVSVYVAPSLGVPVTRFPGYQYFNNQLSPDFALALLAYRCVLHPALFVNSAETNTHGLAYDVPEGIRRHLRNPKIRRAFTDRCINYQHTHKAILSSVALPPELKPLLVLVSRLCHTNPCARHALS
modifications: human herpesvirus 1
notes: HSV-1 protein UL13

Legend:
Assay type in all cases: cell-based, human
[1] = system: bulk polyclonal CD8 effector cells; assay: ORFeome CD8 screen: IFN-γ ELISA after adding CD8 responders to Cos-7 aAPC co-transfected with HLA class I cDNA and HSV-1 ORF; details: for CD8 IFN-γ responses to HSV-1 polypeptide (ORF level): amongst the 7 participants, HLA A, B, C screens; for CD8 reactivity restricted by HLA A*0101: participant 1; for HLA A*0101-bearing donors with CD8 T cells recognizing the ORF: primary co-transfection screens with shared HLA cDNA; for number of distinct restricting HLA alleles: CD8 recognition; for number of persons with CD8 recognition of the ORF: of 7 persons; for number of HLA-level screens in which the ORF was recognized: of 39 screens
[2] = system: CD4+ clone 9447.28 specific for HSV-1 VP22 AA 199-211; assay: 3H thymidine proliferation check of expressed VP22 with a CD4 T-cell clone; details: pEXP203 in vitro expressed protein
Experimental: For expression, pEXP203 plasmids were prepared from a 3 ml ampicillin culture of transformed E. coli using a silica method (Qiagen) and mass determined by spectrophotometry. Protein expression used 50 μl volumes of the Expressionway E. coli system (Invitrogen). To check expression, 1 μl of reaction product was spotted onto nitrocellulose membranes (Whatman, Piscataway, N.J.), air-dried, blocked with 1% blocking reagent (Roche) diluted in TBS (50 mM Tris, 150 mM NaCl, pH 7.5), probed with anti-6-His mAb (Roche) diluted 1:500 in TBS-0.1% Tween −20 (TBS-T) (Roche), washed with TBS-T, incubated with horseradish peroxidase-conjugated anti-mouse IgG (Promega) diluted 1:2500 in TBS-T, washed with TBS-T, and developed with TMB substrate (Promega). Proteins failing to display a spot indicating anti-6-His binding were re-synthesized. For HSV-1 protein VP22 (gene UL49), expression was checked by triplicate, 3-day ^3H thymidine proliferation assay using cornea-derived CD4+ clone 9447.28 specific for HSV-1 VP22 AA 199-211 (18) as responders (2×10^4/well), autologous 3,300 rad γ-irradiated PBMC as APC (10^5/well), and HSV-1 VP22 or controls expressed in the pEXP203 system.
We expressed proteins covering the large majority of the HSV-1 proteome using an in vitro bacterial expression system.

[3] = system: Bulk-expanded HSV-1-reactive CD4 T-cell lines; assay: ORFeome CD4 screen: 3H thymidine proliferation to recombinant HSV-1 proteins; details: of 11 persons

Molecule	CD8 IFN-γ responses to HSV-1 polypeptide (ORF level) [1]	other results
UL54: HSV-1 protein UL54 ICP27	elicit CD8 IFN-γ responses	–
UL37: HSV-1 protein UL37/ICP32	elicit CD8 IFN-γ responses	–
UL47: HSV-1 protein UL47/VP13/14	elicit CD8 IFN-γ responses	–
UL48: HSV-1 protein UL48/VP16/ICP25	elicit CD8 IFN-γ responses	CD8 reactivity restricted by HLA A*0101 [1]: strong reactivity; HLA A*0101-bearing donors with CD8 T cells recognizing the ORF [1]: each HLA A*0101-bearing donor
UL41: HSV-1 protein UL41/vhs	elicit CD8 IFN-γ responses	–
RL2/ICP0: HSV-1 protein RL2/ICP0	elicit CD8 IFN-γ responses	CD8 IFN-γ responses to HSV-1 polypeptide (ORF level) ([1]; listed as ICP0): detected
UL49: HSV-1 protein UL49/VP22	elicit CD8 IFN-γ responses	responses of VP22-specific CD4 T-cell clone to expressed protein [2]: strong, specific responses
UL46: HSV-1 tegument protein VP11/12 encoded by gene UL46	elicit CD8 IFN-γ responses	number of distinct restricting HLA alleles [1]: 7; number of persons with CD8 recognition of the ORF [1]: 5; number of HLA-level screens in which the ORF was recognized [1]: 10; number of persons with CD4 recognition of the protein [3]: 11
UL31: HSV-1 protein UL31	elicit CD8 IFN-γ responses	–
UL25: HSV-1 protein UL25	elicit CD8 IFN-γ responses	–
US7: HSV-1 protein US7/Glycoprotein I	elicit CD8 IFN-γ responses	–
RS1/ICP4: HSV-1 protein RS1/ICP4	elicit CD8 IFN-γ responses	CD8 IFN-γ responses to HSV-1 polypeptide (ORF level) ([1]; listed as ICP4): detected
UL1: HSV-1 protein UL1/Glycoprotein L	elicit CD8 IFN-γ responses	HLA A*0101-bearing donors with CD8 T cells recognizing the ORF [1]: each HLA A*0101-bearing donor
UL29: HSV-1 protein UL29/ICP8	elicit CD8 IFN-γ responses	–
B1	elicit CD8 IFN-γ responses	number of distinct restricting HLA alleles [1]: 7; number of persons with CD8 recognition of the ORF [1]: 6; number of HLA-level screens in which the ORF was recognized [1]: 11; CD8 reactivity restricted by HLA A*0101 [1]: strong reactivity
B2	elicit CD8 IFN-γ responses	–
B3	elicit CD8 IFN-γ responses	–
B4	elicit CD8 IFN-γ responses	–
B5	elicit CD8 IFN-γ responses	CD8 IFN-γ responses to HSV-1 polypeptide (ORF level) ([1]; listed as ICP22): detected
B6	elicit CD8 IFN-γ responses	–
